What all share (assay type): functional, cell-based
One experiment deals with MDA-MB-468. In words: Antiproliferative activity against human MDA-MB-468 cells assessed as inhibition of cell growth incubated for 72 hrs by MTT assay. The conditions noted are these: MDA-MB-468, 72 h. Background: Tetrazolium assays rely on reduction of a dye to a coloured formazan, in cell work by metabolically active cells.
The test system of a further experiment is MCF7. In words: Antiproliferative activity against human MCF7 cells assessed as inhibition of cell growth incubated for 72 hrs by MTT assay. The conditions noted are these: MCF7, 72 h.
A further experiment relates to MDA-MB-231. In words: Antiproliferative activity against human MDA-MB-231 cells assessed as inhibition of cell growth incubated for 72 hrs by MTT assay. The note with it: MDA-MB-231, 72 h.
In the next experiment the test system is 4T1. The experiment can be described thus: Antiproliferative activity against mouse 4T1 cells assessed as inhibition of cell growth incubated for 72 hrs by MTT assay. The conditions noted are these: 4T1, 72 h.
A further experiment has as its system SUM-159-PT. The experiment can be described thus: Antiproliferative activity against human SUM159 cells assessed as inhibition of cell growth incubated for 72 hrs by MTT assay.

pIC50: −log10 of the molar value. Some results are limits rather than exact numbers.

Turning to `C=C1C(=O)O[C@H]2[C@H]1CC/C(CO)=C\CC[C@@]1(C)O[C@@H]21`, the pIC50 with MDA-MB-468 was 4.70; in the experiment on MCF7, 5.17; with MDA-MB-231, 5.42; in the experiment on 4T1 it was 5.23; with SUM-159-PT it was 5.13.

Consider `C=C1C(=O)O[C@H]2[C@H]1C(COC(=O)/C=C/c1ccc(OCc3ccc(-c4cc(=S)ss4)cc3)cc1)C/C=C\CC[C@@]1(C)O[C@@]21C` (stereo partly specified), for which the negative-log IC50 (pIC50) with MDA-MB-231 was 5.21.

As for `C=C1C(=O)O[C@H]2[C@H]1C(COC(=O)CCCC(=O)O)C/C=C\CC[C@@]1(C)O[C@@H]21` (stereo partly specified), in the experiment with MDA-MB-231, the negative logarithm of the IC50 (pIC50) was less than 4.30.

In the case of `C=C1C(=O)O[C@H]2[C@H]1C(COC(=O)CC(C)(C)CC(=O)Oc1ccc(-c3cc(=S)ss3)cc1)C/C=C\CC[C@@]1(C)O[C@@H]21` (stereo partly specified), the negative-log IC50 (pIC50) in the experiment on MDA-MB-231 is 5.77.

With `C=C1C(=O)O[C@H]2[C@H]1C(COC(=O)CC1(CC(=O)O)CCCCC1)C/C=C\CC[C@@]1(C)O[C@@H]21` (stereo partly specified), the negative-log IC50 (pIC50) with MDA-MB-231 is 4.89.

As to `C=C1C(=O)O[C@H]2[C@H]1CC/C(C(=O)OCCCCOc1ccc(-c3cc(=S)ss3)cc1)=C\CC[C@@]1(C)O[C@@H]21`, the negative-log IC50 (pIC50) with MDA-MB-231 is 5.61.

Regarding `C=C1C(=O)O[C@H]2[C@H]1C(COC(=O)CCCC(=O)Oc1ccc(-c3cc(=S)ss3)cc1)C/C=C\CC[C@@]1(C)O[C@@H]21` (stereo partly specified), the negative logarithm of the IC50 (pIC50) with MDA-MB-231 was 5.07.

With `C=C1C(=O)O[C@H]2[C@H]1C(COC(=O)CC1(CC(=O)O)CCCC1)C/C=C\CC[C@@]1(C)O[C@@H]21` (stereo partly specified), the pIC50 with MDA-MB-231 was 4.45.

Take `C=C1C(=O)O[C@H]2[C@H]1C(COC(=O)c1ccccc1C(=O)O)C/C=C\CC[C@@]1(C)O[C@@H]21` (stereo partly specified): the negative logarithm of the IC50 (pIC50) in the experiment with MDA-MB-231 was less than 4.30.

As to `C=C1C(=O)O[C@H]2[C@H]1C(COC(=O)CC1(CC(=O)Oc3ccc(-c4cc(=S)ss4)cc3)CCCC1)C/C=C\CC[C@@]1(C)O[C@@H]21` (stereo partly specified), the negative logarithm of the IC50 (pIC50) with MDA-MB-231 is 5.68.

With `C=C1C(=O)O[C@H]2[C@H]1C(COC(=O)c1ccccc1C(=O)Oc1ccc(-c3cc(=S)ss3)cc1)C/C=C\CC[C@@]1(C)O[C@@H]21` (stereo partly specified), in the experiment with MDA-MB-231, the negative logarithm of the IC50 (pIC50) was 5.54.

Take `C=C1C(=O)O[C@H]2[C@H]1C(COC(=O)CCC(=O)O)C/C=C\CC[C@@]1(C)O[C@@]21C` (stereo partly specified): in the experiment on MDA-MB-231, the pIC50 is less than 4.30.

Broadly, the pIC50 is the negative decadic logarithm of the IC50, by convention in mol/L.
